Converted amounts (≈) assume the structure as drawn.

Data set [1] is described as follows: Solubility (physicochemical properties).
Data set [2] relates to Staphylococcus aureus Smith. The data set can be described thus: Protective effect against bacteria in experimental mice infection (Test 3). The conditions noted are these: inoculum 2.5 × 10^8 cfu, 10 mg/kg subcutaneous once a day for 4 days, 11 days observation, all control mice died. In kind it is in vivo, ICR strain. On the procedure:
Test 3 (Protective effect of FR109615 against bacteria in experimental mice infection)
4 Weeks old mice, ICR strain, each weighing 18-21 g. One group consists of 10 mice.
Pathogenic microorganism suspended in saline were injected into mice via the lateral tail vein. After challenge, a saline solution of FR109615 was subcutaneously injected into the mice (Dosage: 10 mg/kg) once a day for 4 days. […] All of the control mice (non-treatment group) died.

For data set [3], the system named is C. krusei FP585. The data set can be described thus: Protective effect against fungi in experimental mice infection (Test 2). In kind it is in vivo, ICR strain. The conditions noted are these: Pichia kudriavzevii, sc, 336 h; C. krusei FP585, inoculum 2.0 × 10^7 cfu/head; cyclophosphamide-immunosuppressed mice; subcutaneous, 1 h after challenge then twice a day for 2 days; survival 14 days, probit method. On the procedure:
(§1) Test 2 (Protective effect of FR109615 against fungi in experimental mice infection) (1) Test animal 4 Weeks old mice, ICR strain, each weighing 18-21 g. One group consists of 10 mice. (2) Test method 4 Days before challenge, the test mice intraperitoneally received a saline solution of cyclophosphamide (immunosuppressant) ([…]). Each pf pathogenic microorganisms suspended in saline were injected into mice via the lateral tail vein. One hour after challenge, a saline solution of FR109615 was subcutaneously injected into the mice. This treatment was repeated twice a day for 2 days from the next day after challenge.

Data set [4] relates to C. tropicalis 8001. The data set is described as above. In kind it is in vivo, ICR strain. The note with it: Candida tropicalis, sc, 336 h; C. tropicalis 8001, inoculum 5.6 × 10^4 cfu/head; cyclophosphamide-immunosuppressed mice; subcutaneous, 1 h after challenge then twice a day for 2 days; survival 14 days, probit method. On the procedure: as §1
Data set [5] relates to C. pseudotropicalis FP584. Described as above. The note with it: Kluyveromyces marxianus, sc, 336 h; C. pseudotropicalis FP584, inoculum 2.0 × 10^7 cfu/head; cyclophosphamide-immunosuppressed mice; subcutaneous, 1 h after challenge then twice a day for 2 days; survival 14 days, probit method. In kind it is in vivo, ICR strain. On the procedure: as §1
Data set [6] deals with Candida albicans FP622. Described as above. In kind it is in vivo, ICR strain. The conditions noted are these: sc, 336 h; Candida albicans FP622, inoculum 4.8 × 10^4 cfu/head; cyclophosphamide-immunosuppressed mice; subcutaneous, 1 h after challenge then twice a day for 2 days; survival 14 days, probit method. How it is done: as §1
For data set [7], the system named is C. stellatoidea FP588. The data set is described as above. In kind it is in vivo, ICR strain. The conditions noted are these: Candida albicans, sc, 336 h; C. stellatoidea FP588, inoculum 2.0 × 10^6 cfu/head; cyclophosphamide-immunosuppressed mice; subcutaneous, 1 h after challenge then twice a day for 2 days; survival 14 days, probit method. How it is done: as §1

Data set [8] concerns pathogenic microorganisms, especially pathogenic fungi such as pathogenic yeast (e.g. Candida albicans). The data set can be described thus: Antimicrobial activity against pathogenic microorganisms (general statement).
Data set [9] relates to Candida albicans. The data set can be described thus: Antimicrobial activity, micro-broth dilution method (Test 1). In kind it is cell-based. The conditions noted are these: E. MEM, 37° C., 20 hours, 5% CO2, read-out: MIC (minimum inhibitory concentration). How it is done: (§2) Test 1 (Antimicrobial activity)
(§3) Antimicrobial activity of FR109615 was measured by a conventional micro-broth dilution method using 96 well multi-trays.
(§4) A suspension of the test microorganism (10^6 cells/ml) was prepared by diluting an overnight cultured broth of the organism with Eagle's minimum essential medium (E. MEM). A serially diluted solution of FR109615 in E. MEM (100 μl ) was added to a well of the multi-tray. To the well, the suspension of the test organism was added. The multi-trays were incubated at 37° C. for 20 hours in 5% CO2 atmosphere.

The subject of data set [10] is Candida krusei. The data set is described as above. The note with it: Pichia kudriavzevii, E. MEM, 37° C., 20 hours, 5% CO2, read-out: MIC (minimum inhibitory concentration). In kind it is cell-based. How it is done: as §2, §3, §4
In data set [11] the test system is Mucor rouxianus. The description is as above. In kind it is cell-based. The conditions noted are these: E. MEM, 37° C., 20 hours, 5% CO2, read-out: MIC (minimum inhibitory concentration). How it is done: as §2, §3, §4
The subject of data set [12] is Candida utilis. The description is as above. In kind it is cell-based. The conditions noted are these: Williopsis jadinii, E. MEM, 37° C., 20 hours, 5% CO2, read-out: MIC (minimum inhibitory concentration). How it is done:
as §2, §3, §4

For data set [13], the system named is Tricophyton mentagrophytes. The description is as above. In kind it is cell-based. The note with it: E. MEM, 37° C., 20 hours, 5% CO2, read-out: MIC (minimum inhibitory concentration). How it is done:
as §2, §3, §4

Data set [14] has as its system ICR mice. The data set can be described thus: Acute toxicity (Test 4). In kind it is in vivo, 4 weeks old). The conditions noted are these: female, single intravenous injection, 1 g/kg. On the procedure: The acute toxicity of FR109615 was determined to ICR mice (female, 4 weeks old) by a single intravenous injection.

In the case of `N[C@H]1CCC[C@H]1C(=O)O` [FR109615, (1R, 2S)-2-aminocyclopentanecarboxylic], the Solubility result in [1] (Acetone) is listed as “Insoluble”; in data set [1] (Chloroform), “Insoluble”; in [1] (Ethanol), “Sparingly soluble”; in data set [1] (Ethyl acetate), “Insoluble”; in [1] (Methanol), “Sparingly soluble”; in data set [1] (Water) it was “Soluble”. Also, the survival ratio in data set [2] was found to be 100%. The 50% effective dose (ED50) in data set [3] is 0.78 mg/kg; in data set [4], 3.8 mg/kg; in data set [5], 2.38 mg/kg; in [6], 0.87 mg/kg; in data set [7] it was 1.11 mg/kg. For the same compound, in data set [8], the antimicrobial activity result is “strong antimicrobial activity”. Further, the MIC in data set [9] is 16 µg/mL (≈ 124 µM); in data set [10], 8 µg/mL (≈ 61.9 µM); in [11], 500 µg/mL (≈ 3870 µM); in data set [12] it was 32 µg/mL (≈ 248 µM); in data set [13] it was 250 µg/mL (≈ 1940 µM). Also, in data set [14], the “acute toxicity, toxic symptom” value is “No toxic symptom was observed”.

Source of the values: US5514715A, “Antimicrobial agent, FR109615 and production thereof” (Fujisawa Pharmaceutical Co., Ltd., priority 1987, dated 1996).
